The term EC50 denotes the concentration needed to bring the measured effect to its halfway point. High values mean weaker potency, low ones greater potency.

Consider 16 molecules from patent US9682955B2, “Quinazoline derivatives useful as CB-1 inverse agonists” (Janssen Pharmaceutica NV, priority 2014, dated 2017).

Series [1] is described as follows: Mouse Fast PK/BBB (plasma and brain concentration). The format is in vivo, Male C57bl/6j mice. To be noted: for concentration at 1 h / concentration at 4 h: male, C57bl/6j. On the procedure:
Male Sprague Dawley rats were ordered from Charles River (225-250 gm upon arrival). They were fed standard chow diet (Purina 5001) and housed 2 per cage. Male C57bl/6j mice were ordered from Charles River at 22-25 g and housed 3 per cage. They were fed standard chow (Purina 5001). All animals were housed in a temperature-controlled room with 12-hour light/dark cycle. Animals were given food and water ad libitum, except as noted.
[…] Test compounds were administered by oral gavage (5 ml kg^−1).
Male C57bl/6j mice were dosed with test compounds at 30 mg/kg. Plasma was collected via retro-orbital bleeding at 1 hr and 4 hrs after dosing. Whole brain without cerebellum was collected at 4 hrs after dosing. Wet brain weight was recorded before freezing. Brains were homogenized in saline and sent for analysis for determination of concentration of test compound.
Tables 6A and 6B below present results for representative compounds of the present invention, tested according to the procedure as described above. Each compound was tested in three animals (N=3) and administered PO at 20 mg/kg or 30 mg/kg.

Series [2] has as its target Human CB2R (Cannabanoid receptor 2) (Homo sapiens (Human), UniProt P34972). Description: CB-2 in vitro cAMP assay (HTRF). The format is cell-based. To be noted: mean where tested more than once. In a few lines: (§1)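 HEK-293 cells stably transfected with the human receptor, plated overnight at 4E5 cells/mL. Compounds given as 1/3 serial dilutions from 10 mM DMSO stocks. Stimulation in HBSS/5 mM HEPES/0.1% BSA with 0.5 mM IBMX and forskolin (1.5 μM in buffer); cAMP measured by competitive HTRF immunoassay (d2-cAMP, cryptate anti-cAMP) against a cAMP standard curve.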
For orientation: Cyclic AMP is a second messenger, typically raised through Gs and lowered through Gi signalling.

Series [3] addresses Human CB1R (Cannabanoid receptor 1) (Homo sapiens (Human), UniProt P21554). Description: CB-1 in vitro cAMP assay (HTRF). The format is cell-based. To be noted: mean where tested more than once. In a few lines:
as §1

Where [4] appears, read: plasma, PO 30 mg/kg, 1 hr, N=3, read-out: PLASMA Mean Conc. ± Std. Dev.
Setting [5] is: PO 20 mg/kg, 10% PEG400 and 10% Solutol in water, 1 hr, individual animals.
Where [6] appears, read: PO 20 mg/kg, 10% PEG400 and 10% Solutol in water, 4 hr, individual animals.
Where [7] appears, read: PO 30 mg/kg, 5% NMP and 20% HPβCD ~pH8 in water, 1 hr, individual animals.
Setting [8] is: PO 30 mg/kg, 5% NMP and 20% HPβCD ~pH8 in water, 4 hr, individual animals.

Values joined by “and” are separate entries in the source; they are usually repeats but may differ in a detail not shown here. Equal values may be shown once. Read-outs that look alike come from different tables or passages of the source.

Chain of Human CB1R (Cannabanoid receptor 1) (P21554 whole entry): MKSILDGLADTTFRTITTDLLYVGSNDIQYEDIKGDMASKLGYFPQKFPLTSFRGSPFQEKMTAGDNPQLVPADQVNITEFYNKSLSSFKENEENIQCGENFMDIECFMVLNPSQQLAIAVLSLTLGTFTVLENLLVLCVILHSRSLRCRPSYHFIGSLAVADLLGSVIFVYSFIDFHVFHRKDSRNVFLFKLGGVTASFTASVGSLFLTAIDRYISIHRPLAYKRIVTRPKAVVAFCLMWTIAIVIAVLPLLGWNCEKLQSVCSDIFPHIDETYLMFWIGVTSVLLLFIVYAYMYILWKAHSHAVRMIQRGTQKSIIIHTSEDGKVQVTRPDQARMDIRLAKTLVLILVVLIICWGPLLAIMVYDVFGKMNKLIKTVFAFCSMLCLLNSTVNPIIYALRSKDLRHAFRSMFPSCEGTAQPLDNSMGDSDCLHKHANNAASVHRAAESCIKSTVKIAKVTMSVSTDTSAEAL
Chain of Human CB2R (Cannabanoid receptor 2) (P34972 whole entry): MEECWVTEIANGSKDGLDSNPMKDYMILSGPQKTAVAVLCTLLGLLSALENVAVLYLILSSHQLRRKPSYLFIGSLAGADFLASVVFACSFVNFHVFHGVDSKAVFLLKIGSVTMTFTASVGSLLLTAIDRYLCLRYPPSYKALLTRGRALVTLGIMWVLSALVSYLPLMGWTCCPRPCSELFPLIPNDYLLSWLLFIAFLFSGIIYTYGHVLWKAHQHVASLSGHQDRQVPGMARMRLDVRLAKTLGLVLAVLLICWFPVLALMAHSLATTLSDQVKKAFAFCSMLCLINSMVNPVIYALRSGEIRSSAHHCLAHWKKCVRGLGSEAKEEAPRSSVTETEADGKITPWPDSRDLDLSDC

Consider `N=C(N)c1ccc(S(=O)(=O)N2CCC(Nc3ncnc4ccc(C(c5ccc(Cl)cc5)c5ccc(Cl)cc5)cc34)CC2)cc1` [Compound #47, 4-((4-((6-(bis(4-chlorophenyl)methyl)quinazolin-4-yl)amino)piperidin-1-yl)sulfonyl)benzimidamide], for which the “BRAIN Mean Conc. ± Std. Dev” value is given as “BLOQ ± NA” in series [1] (PO 30 mg/kg, 1 hr, N=3) and “BLOQ ± NA” in series [1] (PO 30 mg/kg, 4 hr, N=3). For the same molecule, the “PLASMA Mean Conc. ± Std. Dev” value in series [1] (PO 30 mg/kg, 4 hr, N=3) is reported as “BLOQ ± NA”. The concentration at 1 h in series [1] (setting [4]) turned out to be 7.83 ± 1.08 ng/mL. Moreover, the figures for the EC50 in series [2] and in series [3] were 3.92 µM and 0.01 µM, respectively.

`OCC(CO)(CO)COc1nc(NCc2cccc(C(F)(F)F)c2)c2cc(C(c3ccc(Cl)cc3)c3ccc(Cl)cc3)ccc2n1` [Compound #54, 2-(((6-(bis(4-chlorophenyl)methyl)-4-((3-(trifluoromethyl)benzyl)amino)quinazolin-2-yl)oxy)methyl)-2-(hydroxymethyl)propane-1,3-diol]: the “BRAIN Mean Conc. ± Std. Dev” value is listed as “BLOQ ± NA” in series [1] (PO 30 mg/kg, 1 hr, N=3) and “BLOQ ± NA” in series [1] (PO 30 mg/kg, 4 hr, N=3). The concentration at 1 h in series [1] (setting [4]) turned out to be 946 ± 99.4 ng/mL. Moreover, in series [1] (plasma, PO 30 mg/kg, 4 hr, N=3, read-out: PLASMA Mean Conc. ± Std. Dev), the concentration at 4 h was 1300 ± 155 ng/mL. The values for the EC50 in series [2] and in series [3] were 4.46 µM and 0.021 µM, respectively.

Turning to `O=C(O)c1ccc(S(=O)(=O)N2CCC(Nc3ncnc4ccc(C(c5ccc(Cl)cc5)c5ccc(Cl)cc5)cc34)CC2)cc1` [Compound #93, 4-((4-((6-(bis(4-chlorophenyl)methyl)quinazolin-4-yl)amino)piperidin-1-yl)sulfonyl)benzoic acid], the “BRAIN Range of Conc.” value in series [1] (setting [5]) is “ND, ND, ND”; in series [1] (setting [6]), “ND, ND, ND”; in series [1] (setting [7]), “BLOQ, BLOQ,”; in series [1] (setting [8]), “BLOQ, BLOQ,”. For the same molecule, the “PLASMA Range of Conc.” value was “ND, BLOQ, ND” in series [1] (setting [5]); 17.155 ng/mL and 6.427 ng/mL in series [1] (setting [6]); 280 ng/mL and 9.10 ng/mL and 9.00 ng/mL in series [1] (setting [7]); “BLOQ, BLOQ,” in series [1] (setting [8]). In addition, the concentration at 4 h in series [1] (plasma, PO 20 mg/kg, 10% PEG400 and 10% Solutol in water, 4 hr, individual animals, read-out: PLASMA Range of Conc.) was 16.1 ng/mL. The EC50 in series [2] is 0.323 µM; in series [3], 0.014 µM.

As to `O=S(=O)(c1ccccn1)N1CCC(Nc2ncnc3ccc(C(c4ccc(Cl)cc4)c4ccc(Cl)cc4)cc23)CC1` [compound 111, 6-(bis(4-chlorophenyl)methyl)-N-(1-(pyridin-2-ylsulfonyl)piperidin-4-yl)quinazolin-4-amine], the 50% effective concentration (EC50) in series [2] came to 2.74 µM; in series [3] it was 0.015 µM.

Regarding `CC(Nc1ncnc2ccc(C(c3ccc(Cl)cc3)c3ccc(Cl)cc3)cc12)c1ccc(C(F)(F)F)cc1` (centres unmarked) [compound 116, 6-(bis(4-chlorophenyl)methyl)-N-(1-(4-(trifluoromethyl)phenyl)ethyl)quinazolin-4-amine], the EC50 in series [2] worked out at 2.5 µM; in series [3], 0.008 µM.

`O=C(c1ccccc1)N1CCC(Nc2ncnc3ccc(C(c4ccc(Cl)cc4)c4ccc(Cl)cc4)cc23)CC1` [compound 119, (4-(6-(bis(4-chlorophenyl)methyl)quinazolin-4-ylamino)piperidin-1-yl)(phenyl)methanone]: the EC50 came to 0.91 µM in series [2] and 0.005 µM in series [3].

`O=S(=O)(c1ccc(F)cc1)N1CCC(Nc2ncnc3ccc(C(c4ccc(Cl)cc4)c4ccc(Cl)cc4)cc23)CC1` [compound 121, 6-(bis(4-chlorophenyl)methyl)-N-(1-(4-fluorophenylsulfonyl)piperidin-4-yl)quinazolin-4-amine]: the EC50 in series [2] stood at 2.14 µM; in series [3] it was 0.003 µM.

As for `O=S(=O)(c1ccccc1F)N1CCC(Nc2ncnc3ccc(C(c4ccc(Cl)cc4)c4ccc(Cl)cc4)cc23)CC1` [compound 124, 6-(bis(4-chlorophenyl)methyl)-N-(1-(2-fluorophenylsulfonyl)piperidin-4-yl)quinazolin-4-amine], the EC50 in series [2] was determined as 1.93 µM; in series [3] it was 0.002 µM.

Regarding `FC(F)(F)c1ccc(C2(Nc3ncnc4ccc(C(c5ccc(Cl)cc5)c5ccc(Cl)cc5)cc34)CC2)cc1` [compound 125, 6-(bis(4-chlorophenyl)methyl)-N-(1-(4-(trifluoromethyl)phenyl)cyclopropyl) quinazolin-4-amine], the concentration for a half-maximal effect (EC50) worked out at 5.94 µM in series [2] and 0.044 µM in series [3].

With `FC(F)(F)c1cncc(CNc2ncnc3ccc(C(c4ccc(Cl)cc4)c4ccc(Cl)cc4)cc23)c1` [compound 126, 6-(bis(4-chlorophenyl)methyl)-N-((5-(trifluoromethyl)pyridin-3-yl)methyl)quinazolin-4-amine], the EC50 in series [2] worked out at 1.18 µM; in series [3], 0.025 µM.

On to `FC(F)(F)c1ccc(CNc2ncnc3ccc(C(c4ccc(Cl)cc4)c4ccc(Cl)cc4)cc23)nc1` [compound 127, 6-(bis(4-chlorophenyl)methyl)-N-((5-(trifluoromethyl)pyridin-2-yl)methyl)quinazolin-4-amine], for which the figures for the EC50 in series [2] and in series [3] were 1.73 µM and 0.03 µM, respectively.

Consider `CC(Nc1ncnc2ccc(C(c3ccc(Cl)cc3)c3ccc(Cl)cc3)cc12)c1cccc(C(F)(F)F)c1` (centres unmarked) [compound 128, 6-(bis(4-chlorophenyl)methyl)-N-(1-(3-(trifluoromethyl)phenyl)ethyl)quinazolin-4-amine], for which the EC50 in series [2] was 10.4 µM; in series [3] it was 0.009 µM.

For `FC(F)(F)c1ccc(N2CCC(Nc3ncnc4ccc(C(c5ccc(Cl)cc5)c5ccc(Cl)cc5)cc34)CC2)cc1` [compound 129, 6-(bis(4-chlorophenyl)methyl)-N-(1-(4-(trifluoromethyl)phenyl)piperidin-4-yl)quinazolin-4-amine], the EC50 worked out at 0.072 µM in series [2] and 0.003 µM in series [3].

For the molecule `O=S(=O)(N1CCC(CNc2ncnc3ccc(C(c4ccc(Cl)cc4)c4ccc(Cl)cc4)cc23)CC1)C(F)(F)F` [compound 135, 6-(bis(4-chlorophenyl)methyl)-N-((1-(trifluoromethylsulfonyl)piperidin-4-yl)methyl)quinazolin-4-amine], the EC50 in series [2] was found to be 2.85 µM; in series [3] it was 0.008 µM.

As for `FC(F)(F)c1ccc(CNc2ncnc3ccc(C(c4ccc(Cl)cc4)c4ccc(Cl)cc4)cc23)cc1` [compound 138, 6-(bis(4-chlorophenyl)methyl)-N-(4-(trifluoromethyl)benzyl)quinazolin-4-amine], the concentration at 1 h came to 61.7 ± 22.6 ng/mL in series [1] (brain, PO 20 mg/kg, 1 hr, N=3, read-out: BRAIN Mean Conc. ± Std. Dev) and 3300 ± 537 ng/mL in series [1] (plasma, PO 20 mg/kg, 1 hr, N=3, read-out: PLASMA Mean Conc. ± Std. Dev). The concentration at 4 h turned out to be 192 ± 14 ng/mL in series [1] (brain, PO 20 mg/kg, 4 hr, N=3, read-out: BRAIN Mean Conc. ± Std. Dev) and 3790 ± 743 ng/mL in series [1] (plasma, PO 20 mg/kg, 4 hr, N=3, read-out: PLASMA Mean Conc. ± Std. Dev). Further, the EC50 in series [2] was more than 10 µM; in series [3] it was 0.011 µM.

As to `CCS(=O)(=O)N1CCC(Nc2ncnc3ccc(C(c4ccc(Cl)cc4)c4ccc(Cl)cc4)cc23)CC1` [compound 141, 6-(bis(4-chlorophenyl)methyl)-N-(1-(ethylsulfonyl)piperidin-4-yl) quinazolin-4-amine], the EC50 in series [2] is 5.01 µM; in series [3] it was 0.032 µM.
